Measurements as given in ChEMBL document CHEMBL4033748, “SAR and characterization of non-substrate isoindoline urea inhibitors of nicotinamide phosphoribosyltransferase (NAMPT)” (Bioorg Med Chem Lett, 2017).
In brackets after ≈: the same amount, converted by molar mass. Activity calls are given as the source filed them. The calls are words filed in the database; no cut-off is given here.

What was measured:
[1] = molecular target: Nicotinamide phosphoribosyltransferase (Homo sapiens, UniProt P43490)
Description: Inhibition of C-terminal His-tagged human recombinant NAMPT using FK866 or isoindoline urea-based Oregon green (488) probe incubated for 3 hrs by TR-FRET assay

PC-3 = test: Antiproliferative activity against human PC3 cells assessed as reduction in cell viability incubated for 5 days by Cell-titer Glo reagent based assay; format: functional
Liver [2] = test: Unbound intrinsic clearance in human liver microsomes at 0.5 uM in presence of NADPH incubated for 5 to 30 mins by HPLC-MS/MS method; format: ADME, microsome
Liver [3] = test: Unbound intrinsic clearance in mouse liver microsomes at 0.5 uM in presence of NADPH incubated for 5 to 30 mins by HPLC-MS/MS method; format: ADME, microsome
[4] = Aqueous solubility of the compound; format: physicochemical; details: buffer
[5] = Plasma clearance in Sprague-Dawley rat at 1 mg/kg, iv; format: ADME, organism-based
[6] = Oral bioavailability in Sprague-Dawley rat at 1 mg/kg; format: ADME, organism-based; details: in vivo
Cytochrome P450 3A4 = Cytochrome P450 3A4 (Homo sapiens, UniProt P08684); test: Inhibition of CYP3A4 (unknown origin); format: ADME
Cytochrome P450 2C9 = Cytochrome P450 2C9 (Homo sapiens, UniProt P11712); test: Inhibition of CYP2C9 (unknown origin); format: ADME
Liver [7] = test: Unbound intrinsic clearance in rat liver microsomes at 0.5 uM in presence of NADPH incubated for 5 to 30 mins by HPLC-MS/MS method; format: ADME, microsome
HCT-116 = test: Antitumor activity against human HCT116 cells xenografted in CB17 SCID mouse assessed as tumor growth inhibition at 15 mg/kg/day, po dosed daily (3 days on/4 days off per cycle for 3 cycles); format: functional; details: HCT-116, po, 72 h, read-out: TGI
[8] = Half life in Sprague-Dawley rat at 1 mg/kg, iv; format: ADME, organism-based; details: in vivo
Rattus norvegicus [9] = test: Unbound intrinsic clearance in Sprague-Dawley rat at 1 mg/kg, iv; format: ADME, organism-based; details: in vivo
U-87 MG = details: Homo sapiens; U-87MG ATCC
Description: Antitumor activity against human U87MG cells xenografted in CB17 SCID mouse assessed as tumor growth inhibition

H460LM = details: Homo sapiens
Description: Antitumor activity against human H460LM cells xenografted in CB17 SCID mouse assessed as tumor growth inhibition

Rattus norvegicus [10] = test: Unbound intrinsic clearance in Sprague-Dawley rat at 5 mg/kg, iv; format: ADME, organism-based; details: in vivo
NCI-H345 = details: Homo sapiens
Description: Antitumor activity against human NCI-H345 cells xenografted in CB17 SCID mouse assessed as tumor growth inhibition

[11] = Oral bioavailability in Sprague-Dawley rat at 5 mg/kg; format: ADME, organism-based; details: in vivo
[12] = Plasma clearance in Sprague-Dawley rat at 5 mg/kg, iv; format: ADME, organism-based
A2780 = details: Homo sapiens
Description: Antitumor activity against human A2780 cells xenografted in CB17 SCID mouse assessed as tumor growth inhibition

ES2 = details: Homo sapiens
Description: Antitumor activity against human ES2 cells xenografted in CB17 SCID mouse assessed as tumor growth inhibition

[13] = Half life in Sprague-Dawley rat at 5 mg/kg, iv; format: ADME, organism-based; details: in vivo

Sequence of Nicotinamide phosphoribosyltransferase (P43490 whole entry): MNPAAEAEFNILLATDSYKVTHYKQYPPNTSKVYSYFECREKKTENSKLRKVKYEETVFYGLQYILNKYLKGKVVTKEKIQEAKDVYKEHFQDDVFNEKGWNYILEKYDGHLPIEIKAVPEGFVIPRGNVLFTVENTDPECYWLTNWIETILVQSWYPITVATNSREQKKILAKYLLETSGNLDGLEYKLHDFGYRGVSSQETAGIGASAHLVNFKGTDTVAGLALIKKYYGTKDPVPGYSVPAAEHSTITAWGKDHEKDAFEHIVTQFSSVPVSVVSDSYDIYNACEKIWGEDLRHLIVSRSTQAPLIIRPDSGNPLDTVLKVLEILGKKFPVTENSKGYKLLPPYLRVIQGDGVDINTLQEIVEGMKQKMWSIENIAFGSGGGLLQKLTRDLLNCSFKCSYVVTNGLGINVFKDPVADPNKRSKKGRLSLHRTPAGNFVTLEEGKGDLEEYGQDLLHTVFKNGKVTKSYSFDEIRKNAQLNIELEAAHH
Sequence of Cytochrome P450 2C9 (P11712 whole entry): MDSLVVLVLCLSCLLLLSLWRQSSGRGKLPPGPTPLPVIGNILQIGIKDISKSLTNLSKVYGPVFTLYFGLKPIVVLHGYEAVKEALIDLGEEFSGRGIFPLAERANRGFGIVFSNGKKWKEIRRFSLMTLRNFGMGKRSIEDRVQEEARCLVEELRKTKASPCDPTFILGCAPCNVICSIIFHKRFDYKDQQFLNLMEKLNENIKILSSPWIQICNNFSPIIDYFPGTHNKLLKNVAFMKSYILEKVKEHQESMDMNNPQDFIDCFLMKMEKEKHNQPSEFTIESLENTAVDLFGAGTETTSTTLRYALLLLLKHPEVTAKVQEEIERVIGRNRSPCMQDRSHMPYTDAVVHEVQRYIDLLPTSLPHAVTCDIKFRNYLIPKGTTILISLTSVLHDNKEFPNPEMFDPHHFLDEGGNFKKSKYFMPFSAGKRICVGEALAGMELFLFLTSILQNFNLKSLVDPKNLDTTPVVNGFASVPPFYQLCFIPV
Sequence of Cytochrome P450 3A4 (P08684 whole entry): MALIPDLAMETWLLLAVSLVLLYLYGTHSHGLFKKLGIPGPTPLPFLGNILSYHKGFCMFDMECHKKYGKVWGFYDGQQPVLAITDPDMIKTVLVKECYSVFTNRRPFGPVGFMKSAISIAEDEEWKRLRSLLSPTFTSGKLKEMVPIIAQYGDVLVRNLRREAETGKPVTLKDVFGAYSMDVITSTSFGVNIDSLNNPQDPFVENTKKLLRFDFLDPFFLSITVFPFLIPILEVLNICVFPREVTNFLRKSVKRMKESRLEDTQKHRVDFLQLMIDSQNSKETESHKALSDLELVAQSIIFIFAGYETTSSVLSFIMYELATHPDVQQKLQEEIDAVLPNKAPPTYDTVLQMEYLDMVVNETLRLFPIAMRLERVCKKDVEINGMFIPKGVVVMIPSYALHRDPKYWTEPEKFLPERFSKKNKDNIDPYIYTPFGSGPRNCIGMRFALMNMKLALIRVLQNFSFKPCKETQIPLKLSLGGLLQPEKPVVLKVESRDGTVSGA

Compound | Ki [1] [nM] | IC50 (PC-3; Homo sapiens, PC-3, 120 h) [nM] | IC50 (PC-3; pc-3) [nM] | CL free (Liver [2]) [mL/min/kg] | CL free (Liver [3]) [mL/min/kg] | solubility [4] [µM] | other results
CC(C)CCNC(=O)c1cccc(NC(=O)N2Cc3ccccc3C2)c1 | > 8900 | > 12500 | – | – | – | – | –
Cc1ccc2c(c1)CN(C(=O)Nc1ccc(C(=O)NCCC(C)C)cc1)C2 | – | 10 | – | – | – | – | –
CC(C)CCNC(=O)c1ccc(NC(=O)N2Cc3ccc(C(F)(F)F)cc3C2)cc1 | – | – | > 10000 | – | – | – | –
O=C(NCC1CCOC1)c1ccc(NC(=O)N2Cc3ccccc3C2)cc1 (stereo not given) | – | – | 68 | 26.7 | 83 | < 5 | –
Cc1ccc(NC(=O)N2Cc3ccccc3C2)cc1 | 2200 | – | > 10000 | – | – | < 5 | –
CC(C)C[C@@H](CO)NC(=O)c1ccc(NC(=O)N2Cc3ccccc3C2)cc1 | – | 66 | – | 56.7 | 115 | < 5 | –
O=C(Nc1ccc(N2CCN(C(=O)c3ccccc3)CC2)cc1)N1Cc2ccccc2C1 | – | 84 | – | 130 | – | – | –
O=C(Nc1ccc(C(=O)N2CCN(c3ccccn3)CC2)cc1)N1Cc2ccccc2C1 | – | 19 | – | 63.3 | 183 | < 5 | –
O=C(Nc1ccc(C2CCN(C(=O)c3ccccc3)CC2)cc1)N1Cc2ccccc2C1 | – | 2.8 | – | 183 | 983 | – | –
CC(C)(O)CC(=O)N1CCC(c2ccc(NC(=O)N3Cc4ccc(F)cc4C3)cc2)CC1 | 2.5 | 3.2 | – | 95 | 143 | – | –
CC(C)CCn1cc(-c2ccc(NC(=O)N3Cc4ccccc4C3)cc2)cn1 | – | 32 | – | – | – | < 5 | –
O=C(NCCCc1ccccc1)c1ccc(NC(=O)N2Cc3ccccc3C2)cc1 | – | 21 | – | 17670 | – | < 5 | –
O=C(NCc1ccc(S(=O)(=O)c2ccccc2)cc1)N1Cc2ccccc2C1 | – | > 10000 | – | 650 | 3670 | – | –
COc1ccc2c(c1)CN(C(=O)Nc1ccc(C(=O)NCCC(C)C)cc1)C2 | – | – | > 10000 | – | – | – | –
CC(C)CCNC(=O)c1ccc(NC(=O)N2Cc3cccc(Cl)c3C2)cc1 | – | – | 640 | – | – | – | –
CC(C)CCNC(=O)c1ccc(NC(=O)N2Cc3ccccc3C2)nc1 | – | – | 14 | 53.3 | 283 | – | –
CC1(C(=O)N2CCC(c3ccc(NC(=O)N4Cc5ccccc5C4)cc3)CC2)CC1 | 4.3 | 6.6 | – | 56.7 | 283 | – | –
CC(C)CCNC(=O)c1ccc(NC(=O)N2Cc3ccncc3C2)cc1 | – | – | 8.4 | – | – | – | –
O=C(NCC1CCCOC1)c1ccc(NC(=O)N2Cc3ccccc3C2)cc1 (stereo not given) | – | 17 | – | 30 | 75 | < 5 | –
CC(C)CCNC(=O)c1ccc(NC(=O)N2Cc3ccc(F)cc3C2)cc1 | – | – | 6.5 | – | – | – | –
O=C(NCCCCC1CCN(C(=O)c2ccccc2)CC1)N1Cc2ccccc2C1 | – | 8.4 | – | 317 | 4670 | – | –
CCCNC(=O)c1ccc(NC(=O)N2Cc3ccccc3C2)cc1 | – | – | 880 | 56.7 | 71.7 | < 5 | –
O=C(NCc1ccccc1)c1ccc(NC(=O)N2Cc3ccccc3C2)cc1 | – | 68 | – | 58.3 | 350 | < 5 | –
CC(C)CCNC(=O)c1ccc(NC(=O)N2Cc3ccc(CO)cc3C2)cc1 | – | 1.4 | – | – | – | – | –

Compound | Ki [1] [nM] | IC50 (PC-3; Homo sapiens, PC-3, 120 h) [nM] | IC50 (PC-3; pc-3) [nM] | CL free (Liver [2]) [mL/min/kg] | CL free (Liver [3]) [mL/min/kg] | solubility [4] [µM] | other results
CC1(C(=O)N2CCC(c3ccc(NC(=O)N4Cc5ccccc5C4)cc3)CC2)COC1 | 5.1 | 15 | – | 50 | 145 | – | –
CCC(C)C(=O)N1CCC(Oc2ccc(NC(=O)N3Cc4ccccc4C3)cc2)CC1 (stereo not given) | – | 48 | – | 633 | 2780 | – | –
CN(CCC(C)(C)C)C(=O)c1ccc(NC(=O)N2Cc3ccccc3C2)cc1 | 160 | 1100 | – | 2000 | 2170 | < 5 | –
O=C(Nc1ccc(C2CN(C(=O)c3ccccc3)C2)cc1)N1Cc2ccc(F)cc2C1 | 1.9 | 3.9 | – | 45 | 433 | – | –
CC(C)(O)CC(=O)N1CCC(c2ccc(NC(=O)N3Cc4ccccc4C3)cc2)CC1 | 5.6 | 24 | – | 58.3 | 300 | 3.3 (≈ 1.39 µg/mL) | clearance [5]: 1.83 mL/min/kg; bioavailability [6]: 100%; IC50 (Cytochrome P450 3A4): 16000 nM; IC50 (Cytochrome P450 2C9): 8400 nM; CL free (Liver [7]): < 56.7 mL/min/kg; inhibition in vivo at 15 mg/kg/day (HCT-116): 90%; half-life [8]: 4.8 h; CL free (Rattus norvegicus [9]): 28.3 mL/min/kg
CC(C)CCNC(=O)c1ccc(NC(=O)N2Cc3ccccc3C2)cc1 | – | – | 38 | 250 | 817 | < 5 | –
O=C(Nc1ccc(C2=CCN(C(=O)c3ccccc3)CC2)cc1)N1Cc2ccccc2C1 | – | 8.1 | – | 217 | – | – | –
O=C(Nc1ccc(C2CCN(S(=O)(=O)C3CC3)CC2)cc1)N1Cc2ccc(F)cc2C1 | 3.9 | 6.5 | – | 58.3 | 500 | – | –
NC(=O)c1ccc(NC(=O)N2Cc3ccccc3C2)cc1 | – | – | 8000 | 20 | 148 | < 5 | –
CC(C)C(=O)N1CCC(c2ccc(NC(=O)N3Cc4ccccc4C3)cc2)CC1 | – | 18 | – | 58.3 | 367 | – | –
CC(C)CCNC(=O)c1ccc(NC(=O)N2Cc3ccccc3C2)cn1 | – | – | 730 | 217 | 1250 | – | –
CC(C)(C)CCNC(=O)c1ccc(NC(=O)N2Cc3ccccc3C2)cc1 | – | – | 21 | 217 | 145 | < 5 | –
O=C(Nc1ccc(S(=O)(=O)c2ccccc2)cc1)N1Cc2ccccc2C1 | 21 | 30 | – | 73.3 | 367 | – | –
O=C(/C=C/c1cccnc1)NCCCCC1CCN(C(=O)c2ccccc2)CC1 [DAPORINAD] | – | 5.7 | – | 91.7 | 258 | < 5 | –
O=C(NC[C@@H]1CCOC1)c1ccc(NC(=O)N2Cc3ccccc3C2)cc1 | – | – | 56 | – | – | 17 (≈ 6.21 µg/mL) | IC50 (Cytochrome P450 3A4): > 20000 nM; TGI (U-87 MG): Active; TGI (H460LM): Active; CL free (Rattus norvegicus [10]): 28.3 mL/min/kg; TGI (NCI-H345): Active; bioavailability [11]: 59%; clearance [12]: 4.33 mL/min/kg; IC50 (Cytochrome P450 2C9): > 20000 nM; TGI (A2780): Active; TGI (ES2): Active; CL free (Liver [7]): < 46.7 mL/min/kg; inhibition in vivo at 15 mg/kg/day (HCT-116): 78%; half-life [13]: 3 h
CN1CCN(C(C)(C)C(=O)N2CCC(c3ccc(NC(=O)N4Cc5ccccc5C4)cc3)CC2)CC1 | 1.5 | 2.3 | – | 733 | 1470 | – | –
CC(C)CCNS(=O)(=O)c1ccc(NC(=O)N2Cc3ccccc3C2)cc1 | – | > 10000 | – | 433 | 4420 | < 5 | –
N#CN=C(NCCCCCCOc1ccc(Cl)cc1)Nc1ccncc1 [CHS-828] | – | 4.4 | – | 567 | 1360 | < 5 | –
COc1cc2c(cc1OC)CN(C(=O)Nc1ccc(C(=O)NCCC(C)C)cc1)C2 | > 9000 | > 10000 | – | – | – | – | –
O=C(Nc1ccc(C2CCN(C(=O)[C@@H]3CCCO3)CC2)cc1)N1Cc2ccc(Cl)cc2C1 | 1.7 | 7.9 | – | 217 | 583 | – | –
CC(C)CCNC(=O)c1ccc(NC(=O)N2Cc3ccc(C#N)cc3C2)cc1 | – | > 10000 | – | – | – | – | –
COC(=O)c1ccc(NC(=O)N2Cc3ccccc3C2)cc1 | 112 | – | 2300 | – | – | < 5 | –
CN1CCC(C(=O)N2CCC(c3ccc(NC(=O)N4Cc5ccc(F)cc5C4)cc3)CC2)CC1 | 9.4 | 5.6 | – | 41.7 | 267 | – | –
CC(C)CCC(=O)Nc1ccc(NC(=O)N2Cc3ccccc3C2)cc1 | 58 | 17 | – | 60 | 783 | < 5 | –
